We go through seven molecules from patent EP0368175A1, “3S,7S-3-(Morpholinocarbonyl)-5-(2-chlorphenyl)-7,10-dimethyl-3,4-dihydro-2H,7H-cyclopenta[4,5]thieno[3,2-f][1,2,4]triazolo[4,3-a][1,4]diazepine” (BOEHRINGER INGELHEIM KG, priority 1988, dated 1990).

For this assay, the target named is T1, PAF-Rezeptor (Homo sapiens, UniProt P25105).
T1 construct: endogenous in cells; host or cells: intact human platelets from blood of healthy donors, purified on Sepharose CL-2B
Nature of the assay: [^3H]PAF receptor binding on vital human platelets. How it is done:
[^3H]PAF-Rezeptor-Bindung an vitalen humanen Blutplättchen
Bestimmt wird die konkurrierende Wechselwirkung von Prüfsubstanzen (hier PAF-Antagonisten) mit der bekannten Wechselwirkung des Radioliganden [^3H]PAF zum gleichen Rezeptor.
Die Bindungsstudien wurden an vitalem menschlichen Thrombozyten vorgenommen. Blutproben von gesunden Spendern wurden mit ACD-Puffer verdünnt und zentrifugiert (15 Min., 160 x g). Das blättchenreiche Plasma wird durch Chromatographie an Sepharose CL-2B [Zum Eluieren: HEPES-Puffer, pH 7,4 20° C] gereinigt.
Definierte Mengen [z.B. 800 µl] der Blättchensuspension wurden 90 Min. bei Raumtemperatur inkubiert, d.h. vermischt mit: • a) einer […] [^3H]PAF-Lösung, verdünnt mit Puffer. • b) mit einer 30 p molaren [^3H] PAF-Lösung, die gleichzeitig eine u.-molare (nicht markierte) PAF-Lösung enthält, • c) mit der 30 pmolaren [^3H]PAF-Lösung und den Lösungen der Prüfsubstanzen (unterschiedliche Konzentrationen) • a) Dient zur Ermittlung der totalen Bindung, • b) Dient zur Ermittlung der unspezifischen Bindung.
Die Reaktion wurde durch Vakuumfiltration abgestoppt. Die Filter mit den Blutplättchen werden mit Scintilationsflüssigkeit versetzt und die verbliebene Radioaktivität in einem Counter gemessen. Die spezifische Bindung ergibt sich aus totaler Bindung minus unspezifischer Bindung. Man bestimmt entweder die ICso-Werte (d.h. jene Konzentration der Prüfsubstanz, die 50 % des Radioliganden - hier [^3H] PAF - vom Rezeptor verdrängt), und gibt diese an. Oder errechnet hieraus die Ki-Werte. Dies kann computerunterstützt durch ein Iterationsverfahren der Bindungskurven geschehen. ICso- bzw. Ki-Werte sind ein Maß für die Rezeptoraffinität der Testsubstanz. Kleinere Werte zeigen die höhere Affinität an.

Where [1] appears, read: four separated isomers of Example 9d, read-out: [^3H]PAF-Bindung (Ki).

Like-named read-outs stand apart in the source and are kept apart here.

T1 sequence (P25105 whole entry): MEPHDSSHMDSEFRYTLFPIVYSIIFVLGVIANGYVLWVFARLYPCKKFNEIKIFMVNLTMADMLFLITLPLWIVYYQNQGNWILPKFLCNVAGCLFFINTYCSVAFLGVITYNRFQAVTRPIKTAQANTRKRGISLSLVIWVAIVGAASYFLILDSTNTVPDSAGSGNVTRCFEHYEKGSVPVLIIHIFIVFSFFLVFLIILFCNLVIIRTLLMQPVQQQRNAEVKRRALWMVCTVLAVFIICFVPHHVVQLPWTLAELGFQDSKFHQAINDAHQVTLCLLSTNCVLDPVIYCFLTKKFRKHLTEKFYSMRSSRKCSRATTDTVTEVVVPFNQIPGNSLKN

Turning to “3-(Morpholinocarbonyl)-5-(2-chlorphenyl)-7,10-dimethyl-3,4-dihydro-2H,7H-cyclopenta[4,5,thieno-[3,2-f]-[1.2.4]triazolo[4.3-a] [1,4]diazepin [(-) 9dB]”, the Ki under setting [1] is 8 nM.

On to `Cc1nnc2n1-c1sc(CCC(=O)N3CCOCC3)cc1C(c1ccccc1Cl)=NC2C` (racemic) [Beispiel 1, 2-(Morpholinylcarbonylethyl)-4-(2-chlorphenyl)-6,9-dimethyl-6H-thieno(3,2-f][1,2,4]triazolo[4,3-a][1,4]diazepin], for which the Ki (not stated whether IC50 or Ki, read-out: Affinität zum PAF-Rezeptor) was found to be 16 nM.

`Cc1nnc2n1-c1sc(CCC(=O)N3CCOCC3)cc1C(c1ccccc1Cl)=NC2C` (single isomer, unassigned) [IB, 2-(Morpholinylcarbonylethyl)-4-(2-chlorphenyl)-6,9-dimethyl-6H-thieno(3,2-f][1,2,4]triazolo[4,3-a][1,4]diazepin]: the “bindet stärker an den PAF-Rezeptor als die (+)-Form (1A)” value (ratio of binding, (-)-form versus (+)-form of Example 1) is 35 mal.

As for `Cc1nnc2n1-c1sc3c(c1C(c1ccccc1Cl)=NC2C)CC(C(=O)N1CCOCC1)C3` (single isomer, unassigned; (+)) [(+) 9dA], the Ki under setting [1] amounted to 400 nM.

`Cc1nnc2n1-c1sc3c(c1C(c1ccccc1Cl)=NC2C)CC(C(=O)N1CCOCC1)C3` (single isomer, unassigned; (+)) [(+) 9dB]: under setting [1], the Ki came out at 3000 nM.

For the molecule `Cc1nnc2n1-c1sc3c(c1C(c1ccccc1Cl)=NC2C)CC(C(=O)N1CCOCC1)C3` (single isomer, unassigned; (-)) [(-) 9dA], the Ki under setting [1] came to 70 nM.

As to `Cc1nnc2n1-c1sc3c(c1C(c1ccccc1Cl)=NC2C)CC(C(=O)N1CCOCC1)C3` (stereo not shown) [Beispiel 9d], the Ki (33 : 67 mixture of diastereomers, read-out: [^3H]PAF-Bindung: K) came out at 83 nM.
